Data published in patent US9006394B2, “Peptide-presenting surfaces for long-term culture of pluripotent cells” (Wisconsin Alumni Research Foundation, priority 2008, dated 2015).
Ends that are not written are not given here.

Tests used:
hESCs (H1 and H9) = test: hESC culture for 6 days on peptide-AT SAM arrays, Oct-4 and SSEA-4 staining; assay type: cell-based, human
Protocol: hESCs were passaged to SAMs of peptide-AT conjugates on gold in mTeSR™1 optionally supplemented with 10 ng/ml heregulin-β1 (Peprotech; Rocky Hill, N.J.) and 5 μM Y-27632 (Calbiochem; San Diego, Calif.). […] Some surfaces presented peptide-AT conjugates of only vitronectin GBP (SEQ ID NO:1), fibronectin GBP (SEQ ID NO:2) or bone sialoprotein GBP (SEQ ID NO:3) Alternatively, some surfaces presented peptide-AT conjugates of only the integrin-binding peptide (SEQ ID NO:5), another bioactive peptide derived from fibronectin (SEQ ID NO:6), the FGF receptor binding peptide (SEQ ID NO:4), the laminin-derived bioactive peptide (SEQ ID NO:7), […] (SEQ ID NO: 8) or […] (SEQ ID NO: 9). Furthermore, some surfaces presented separate peptide-AT conjugates of the integrin-binding peptide (SEQ ID NO:5) and FGF receptor binding peptide (SEQ ID NO:4); the integrin-binding peptide (SEQ ID NO:5) and vitronectin GBP (SEQ ID NO:1); the integrin-binding peptide (SEQ ID NO:5) and bioactive peptide derived from fibronectin (SEQ ID NO:6); and the vitronectin GBP (SEQ ID NO:1) and […] (SEQ ID NO: 9). The density of the peptides on the surface varied from 0.5% to 25% (see, FIG. 1).
Images were collected with a Hamamatsu (Bridgewater, N.J.) Digital Camera mounted onto an Olympus IX81 Microscope. […]

hESCs = test: Embryoid body differentiation after long-term culture, germ layer marker staining; assay type: cell-based, human; settings: 3 months on surface, then 2 weeks EB suspension culture
Text: Images were collected with a Hamamatsu (Bridgewater, N.J.) Digital Camera mounted onto an Olympus IX81 Microscope. Primary antibodies used were as follows: Oct-4 (1:400; R&D Systems; Minneapolis, Minn.), SSEA-4 (1:400; Santa Cruz Biotechnology; Santa Cruz, Calif.), β-III tubulin (1:3000; R&D Systems), nestin (1:3000), α-fetoprotein (1:250; Sigma), FoxA2 (1:100; R&D Systems), α-smooth muscle actin (1:1000; Sigma), and fatty acid binding protein 4 (1:250; R&D Systems). Cells were fixed with PBS containing 4% formaldehyde and 0.15% picric acid for 20 minutes at 37° C. and then permeabilized and blocked with PBS containing 0.1% Triton X-100 and 0.1% bovine serum albumin (BSA). All antibodies were incubated in blocking buffer overnight at 4° C., except for the antibodies against β-III tubulin, nestin and α-smooth muscle actin, which were incubated for 1 hour at room temperature. Secondary staining was performed with Alexa Fluor® 488- and/or 594-conjugated antibodies (1:1000; Invitrogen) diluted in blocking buffer and incubated for 1 hour at room temperature. Cells were counterstained with 4′,6-diamidino-2-phenylindole, dilactate (DAPI; Invitrogen). Image overlays were generated using ImageJ (ImageJ is a public domain Java image processing program available on the World Wide Web). Peptide array mosaics were generated using the AnalySIS Acquisition Software (Olympus).

human ESCs (H9) = test: Cell adhesion (CellTiter-Glo) with soluble heparin or chondroitinase ABC; assay type: cell-based; settings: 1 hour
Protocol: To determine the effect of a soluble GAG on hESC binding to GBPs, hESCs were plated onto Matrigel-coated surfaces, vitronectin-coated surfaces, or surfaces presenting the heparin-binding peptide […] (SEQ ID NO: 1) in the presence or absence of soluble heparin (0.5 mg/mL). After 1 hour, the surfaces were washed and the cells lysed. The cell lysates were used to determine approximate cell numbers using Cell Titer Glo (Promega). The ratio of the mean luminescence of the cell lysates of cells plated in the presence of heparin versus those without heparin was expressed as percent cell binding for each surface.
To determine if glycosaminoglycans (GAGs) are required for GBP binding, human ESCs (H9) cultured on Matrigel were dissociated using an enzyme-free, Hanks'-based cell dissociation buffer (Sigma) for 10-15 minutes. Cells were resuspended in DMEM/F12 (Gibco), or DMEM/F12 supplemented with 2 units/mL chondroitinase ABC (Sigma), or 500 ug/mL heparin (Sigma). Cells treated with the GAG-degrading enzymes were incubated for 1 hour in suspension at 37° C. Cell suspensions were seeded onto Matrigel-coated surfaces, recombinant vitronectin-coated surfaces (10 μg/mL, R&D Systems), or SAMs presenting the peptide […] (SEQ ID NO: 1) at a 5% surface density. After 1 hour, surfaces were washed 3 times with PBS and the cells were lysed with M-PER buffer (Thermo Fisher Scientific, Inc., Rockford, Ill.). The cell lysate was mixed with CellTiter-Glo (Promega) to determine the number of viable cells in culture based on the presence of ATP. The luminescence was measured on 20/20^n luminometer (Turner Biosystems, Inc., Sunnyvale Calif.). • Cell Growth: […]

pluripotent stem cells = test: Number of cell divisions by fluorescent cell staining; assay type: cell-based, human; settings: listed as GKKQRFRHRNKG

GKKQRFRHRNRKG (not fully specified (C-terminus); listed as Homo sapiens)
karyotype by standard G banding (H9 hESCs): karyotypically normal
cell attachment and self-renewal, presence of Oct-4 and SSEA-4 after 6 days (hESCs (H1 and H9)): best supported both cell attachment and self-renewal
ectoderm derivatives: staining for β-III tubulin and nestin (hESCs): stained positive
endoderm derivatives: staining for α-fetoprotein and FoxA2 (hESCs): stained positive
mesoderm derivatives: staining for fatty acid binding protein 4 and α-smooth muscle actin (hESCs): stained positive
adhesion of cells treated with chondroitinase ABC (human ESCs (H9); 2 units/mL chondroitinase ABC, 5% surface density): decreased adhesion
hESC binding in the presence of soluble heparin (human ESCs (H9); soluble heparin 0.5 mg/mL): abrogate hESC binding
number of cell divisions (pluripotent stem cells): superior to polylysine-coated surfaces
